Results from BindingDB's records for doi:10.7270/Q2FQ9V6B (Burnham Center For Chemical Genomics, 2012).

Molecular target: T1, Tyrosine-protein phosphatase non-receptor type 22 (Homo sapiens, UniProt Q9Y2R2)
T1 sequence (Q9Y2R2 whole entry): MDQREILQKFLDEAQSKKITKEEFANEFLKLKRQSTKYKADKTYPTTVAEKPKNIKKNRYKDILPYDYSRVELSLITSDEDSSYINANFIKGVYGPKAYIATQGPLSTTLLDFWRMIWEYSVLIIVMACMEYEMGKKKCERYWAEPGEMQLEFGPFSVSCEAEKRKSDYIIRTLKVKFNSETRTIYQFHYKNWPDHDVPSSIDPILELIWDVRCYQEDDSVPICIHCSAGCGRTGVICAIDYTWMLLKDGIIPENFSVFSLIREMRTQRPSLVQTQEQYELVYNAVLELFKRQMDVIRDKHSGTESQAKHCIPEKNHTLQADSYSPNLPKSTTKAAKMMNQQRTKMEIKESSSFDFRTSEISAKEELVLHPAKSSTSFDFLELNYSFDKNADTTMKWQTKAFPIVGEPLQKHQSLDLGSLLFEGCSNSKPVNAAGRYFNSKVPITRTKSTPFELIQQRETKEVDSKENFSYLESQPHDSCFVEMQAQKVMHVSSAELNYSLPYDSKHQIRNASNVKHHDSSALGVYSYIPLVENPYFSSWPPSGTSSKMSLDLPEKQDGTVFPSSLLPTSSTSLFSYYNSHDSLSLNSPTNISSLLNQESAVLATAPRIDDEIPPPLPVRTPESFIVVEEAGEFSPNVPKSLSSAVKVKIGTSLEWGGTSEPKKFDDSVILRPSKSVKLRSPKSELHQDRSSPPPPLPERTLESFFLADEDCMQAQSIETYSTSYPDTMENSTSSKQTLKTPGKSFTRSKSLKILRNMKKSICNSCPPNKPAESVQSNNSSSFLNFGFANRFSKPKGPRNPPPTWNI
Test: PTPN22 phosphatase inhibition, dose response, selectivity assay for STEP inhibitor project, biochemical (AID 624241)

**Q.** With `COc1cc(Cl)ccc1N=C(S)N(CCCN1CCOCC1)Cc1cn(C)c2ccccc12` [N'-(4-chloro-2-methoxyphenyl)-N-[(1-methyl-1H-indol-3-yl)methyl]-N-(3-morpholin-4-ylpropyl)thiourea] as the molecule, how does the IC50 read?
**A.** > 100 µM

**Q.** With `O=C1Nc2ccc3sc4ccccc4c3c2C1=O` [3H-6-Thia-3-aza-cyclopenta[c]fluorene-1,2-dione] as the molecule, how does the IC50 read?
**A.** > 100 µM

**Q.** `CCc1ccc(OCC(=O)Nc2ccc(-c3nc4ccccc4o3)c(O)c2)cc1` [MLS000109444] was tested. Which IC50 did it give?
**A.** > 100 µM

**Q.** Which IC50 does the source give for `O=C(N/N=C/C1C=CC=CC1=O)c1cccc([N+](=O)[O-])c1` (stereo not given) [MLS002667988] here?
**A.** > 100 µM

**Q.** How did the IC50 turn out when `CCOc1cc(CN=Nc2nc(O)c(CC(=O)O)s2)ccc1OCc1ccc(Cl)cc1Cl` [2-[2-[(N''E)-N''-[4-(2,4-dichlorobenzyl)oxy-3-ethoxy-benzylidene]hydrazino]-4-keto-2-thiazolin-5-yl]acetic acid] was run?
**A.** 7.26 µM

**Q.** For `Cc1c(CCC(=O)O)c(=O)oc2c(C)c(OCc3ccccc3Cl)ccc12` [3-[7-[(2-chlorophenyl)methoxy]-4,8-dimethyl-2-oxochromen-3-yl]propanoic acid], which IC50 is on record?
**A.** > 100 µM

**Q.** `COC(=O)c1ccccc1CSc1nsc(/C=C/N(C)C)c1C#N` [SMR000549393] was tested. Which IC50 did it give?
**A.** > 100 µM

**Q.** With `Cc1ccc(N=C(S)N(CCN(C)C)Cc2cccs2)c(C)c1` as the molecule, how does the IC50 read?
**A.** > 100 µM

**Q.** With `O=C(N/N=C/c1ccc(Br)cc1)c1ccc(Br)o1` [5-bromanyl-N-[(E)-(4-bromophenyl)methylideneamino]furan-2-carboxamide] as the molecule, how does the IC50 read?
**A.** > 100 µM

**Q.** For `CCN1CCN(C(=S)c2ccc(Cl)c(Cl)c2)CC1` [SMR000143195], which IC50 is on record?
**A.** > 100 µM

**Q.** With `O=C(N/N=C/c1ccc(Cl)c([N+](=O)[O-])c1)c1ccc2c(c1)OCCO2` [MLS000587937] as the molecule, how does the IC50 read?
**A.** > 100 µM

**Q.** `N=C1S/C(=C\c2ccc(O)cc2)C(=O)N1c1ccc(F)cc1` [SMR000298434] was tested. Which IC50 did it give?
**A.** > 100 µM

**Q.** For `OCCN1CCN(C(=S)c2ccc(Cl)c(Cl)c2)CC1` [(3,4-dichlorophenyl)-[4-(2-hydroxyethyl)-1-piperazinyl]methanethione], which IC50 is on record?
**A.** > 100 µM

**Q.** With `O=C(CCc1ccccc1)NNC(=O)c1ccc(NC(=O)c2ccccc2)cc1` as the molecule, how does the IC50 read?
**A.** > 100 µM

**Q.** How did the IC50 turn out when `COc1ccc(NC(=S)NCCCN2CCCC2)cc1Cl` [1-(3-chloro-4-methoxyphenyl)-3-[3-(1-pyrrolidinyl)propyl]thiourea] was run?
**A.** > 100 µM

**Q.** `Cc1sc2nc(CSC(C)C(=O)Nc3ccc(Cl)cn3)nc(O)c2c1C` (stereo not given) [SMR001268769] was tested. Which IC50 did it give?
**A.** > 100 µM

**Q.** `S=C1N=C2C(=C3SCCS3)CCCC2C(c2ccccc2)N1` (stereo not given) [MLS000516376] was tested. Which IC50 did it give?
**A.** > 100 µM

**Q.** For `COC(=O)Nc1sc2c(c1C(N)=O)CCC(C)C2` (stereo not given) [MLS000683996], which IC50 is on record?
**A.** > 100 µM

**Q.** With `Cc1ccc(NC(=O)c2ccc3nc(N4CCOCC4)sc3c2)c(Cl)c1` [SMR000624920] as the molecule, how does the IC50 read?
**A.** > 100 µM

**Q.** For `O=C(NN=Cc1ccccc1O)NN=Cc1ccccc1O` [SMR001556943], which IC50 is on record?
**A.** > 100 µM

**Q.** `O=C(N/N=C/c1cccc(Br)c1)c1ccc(N2CCCC2=O)cc1` [N-[(E)-(3-bromophenyl)methylideneamino]-4-(2-oxidanylidenepyrrolidin-1-yl)benzamide] was tested. Which IC50 did it give?
**A.** > 100 µM

**Q.** Which IC50 does the source give for `COc1cccc(-c2cc(C(=O)Nc3nc4ccccc4s3)c3ccccc3n2)c1` [N-(1,3-benzothiazol-2-yl)-2-(3-methoxyphenyl)-4-quinolinecarboxamide] here?
**A.** > 100 µM

**Q.** Which IC50 does the source give for `Cc1c(CC(=O)O)c(=O)oc2c(C)c(OCc3ccccc3Br)ccc12` [2-[7-[(2-bromophenyl)methoxy]-4,8-dimethyl-2-oxochromen-3-yl]acetic acid] here?
**A.** > 100 µM

**Q.** Which IC50 does the source give for `Cc1ccc(C(=S)N2CCN(Cc3ccccc3)CC2)s1` [(5-methyl-2-thiophenyl)-[4-(phenylmethyl)-1-piperazinyl]methanethione] here?
**A.** > 100 µM

**Q.** With `S=C(c1cn(CCOc2ccccc2)c2ccccc12)N1CCCC1` [MLS-0109562.0001] as the molecule, how does the IC50 read?
**A.** > 100 µM

**Q.** `Cc1ccc(-c2nc(NC(=O)CSc3cc(C)c4ccccc4n3)ns2)cc1` [2-[(4-methyl-2-quinolyl)thio]-N-[5-(p-tolyl)-1,2,4-thiadiazol-3-yl]acetamide] was tested. Which IC50 did it give?
**A.** > 100 µM

**Q.** With `O=C(Nc1cccc2c(=O)[nH][nH]c(=O)c12)c1ccc([N+](=O)[O-])cc1` [MLS003171605] as the molecule, how does the IC50 read?
**A.** > 100 µM

**Q.** `O=[N+]([O-])c1ccc(O)c(Nc2ncnc3ccccc23)c1` [4-nitro-2-(4-quinazolinylamino)phenol] was tested. Which IC50 did it give?
**A.** > 100 µM

**Q.** Which IC50 does the source give for `CSc1ccc(CN=Nc2ccc(S(=O)(=O)Nc3ccccc3C(=O)O)cc2[N+](=O)[O-])cc1` [MLS002245633] here?
**A.** 2.82 µM

**Q.** How did the IC50 turn out when `OCCN1CCN(C(=S)c2ccc(Br)cc2)CC1` [MLS000577024] was run?
**A.** > 100 µM

**Q.** How did the IC50 turn out when `COc1ccc(CN=Nc2nc(O)c(CC(=O)O)s2)cc1OCc1ccc(Cl)cc1Cl` [[2-({3-[(2,4-dichlorobenzyl)oxy]-4-methoxybenzylidene}hydrazono)-4-oxo-1,3-thiazolidin-5-yl]acetic acid] was run?
**A.** 33.8 µM

**Q.** Which IC50 does the source give for `S=C(NCCc1ccccc1)Nc1c(Cl)cccc1Cl` [1-(2,6-dichlorophenyl)-3-(2-phenylethyl)thiourea] here?
**A.** > 100 µM

**Q.** How did the IC50 turn out when `CCOC(=O)N1CCC(N(CCN(C)C)C(=S)Nc2ccc(Oc3ccccc3)cc2)CC1` [SMR000311544] was run?
**A.** > 100 µM

**Q.** Which IC50 does the source give for `O=C(N/N=C/c1ccc(OC(=O)c2cccs2)cc1)c1cccc(F)c1` [MLS000576933] here?
**A.** > 100 µM

**Q.** With `CCCN(CC(=O)Nc1ccccc1OC)C(=O)Cc1ccc2c(c1)CCC2` [2-(2,3-dihydro-1H-inden-5-yl)-N-[2-[(2-methoxyphenyl)amino]-2-oxidanylidene-ethyl]-N-propyl-ethanamide] as the molecule, how does the IC50 read?
**A.** > 100 µM

**Q.** For `CCOc1ccc(C(=S)N2CCN(C)CC2)cc1` [(4-ethoxyphenyl)-(4-methyl-1-piperazinyl)methanethione], which IC50 is on record?
**A.** > 100 µM

**Q.** How did the IC50 turn out when `CC(C)(C)C(=O)Nc1ccc(C(=O)Nc2cccc(Oc3ccc(C(=O)O)c(C(=O)O)c3)c2)cc1` [MLS001181252] was run?
**A.** > 100 µM

**Q.** `COc1cccc(Nc2nn3c(=O)c4ccccc4nc3s2)c1` was tested. Which IC50 did it give?
**A.** > 100 µM

**Q.** `COc1ccc(OC)c(-n2c(O)c3o[nH]c(-c4ccccc4Cl)c-3c2=O)c1` [SMR000046218] was tested. Which IC50 did it give?
**A.** > 100 µM

**Q.** Which IC50 does the source give for `O=C(N/N=C/c1cccc([N+](=O)[O-])c1)c1ccc(Br)cc1` [4-bromo-N-[(E)-(3-nitrophenyl)methylideneamino]benzamide] here?
**A.** > 100 µM

**Q.** `CCOc1ccc(/C=N/NC(=O)c2cc3c(OC)cccc3[nH]2)cc1` [MLS001216500] was tested. Which IC50 did it give?
**A.** > 100 µM

**Q.** With `NC(=O)C1(N2CCCCC2)CCN(C(=S)Nc2ccc(S(N)(=O)=O)cc2)CC1` [1'-({[4-(aminosulfonyl)phenyl]amino}carbonothioyl)-1,4'-bipiperidine-4'-carboxamide] as the molecule, how does the IC50 read?
**A.** > 100 µM

**Q.** `O=S(=O)(Nc1ccc(Cl)cc1)c1ccc(N2CCOCC2)c(NC(=S)NCCN2CCOCC2)c1` was tested. Which IC50 did it give?
**A.** > 100 µM

**Q.** `O=C(COc1ccc(/C=N/NC(=O)c2ccccc2O)cc1)Nc1ccccc1` [N-[(E)-[4-(2-anilino-2-oxoethoxy)phenyl]methylideneamino]-2-hydroxybenzamide] was tested. Which IC50 did it give?
**A.** > 100 µM

**Q.** How did the IC50 turn out when `O=C(N/N=C/c1ccncc1)c1cccc(S(=O)(=O)Nc2ccc(Cl)cc2)c1` was run?
**A.** > 100 µM
